Laboratory results taken from patent publication US20100075917A1, “THIONUCLEOSIDES AND PHARMACEUTICAL APPLICATIONS” (priority 2006, published 2010).
Read-outs that look alike come from different tables or passages of the source.

Legend:
human CEM cells = assay: Cytotoxicity (MTT) on CEM cells; format: cell-based; settings: for CC50: read-out: CC50 CEM; for EC50: Tables 4 and 6, CEM cells, some values 'then plateau'
Method: (§1) The cytotoxic effect of a compound is studied on human CEM cells and MCF-7 mammary carcinoma cells that are or are not resistant to gemcitabine, which is an anticancer nucleoside used in chemotherapy.
(§2) The cytotoxicity (CC50) was estimated by measuring the reduction of 3-(4,5-dimethylthiazol-2-yl)-2,5-diphenyltetrazolium bromide (MTT), which is converted into insoluble violet formazan. To do this, 100 000 cells (human CEM-SS or MCF-7 lines) are inoculated per well in 100 μl of culture medium, in 96-well microtitration plates. After 24 hours, the test products are added in 100 μl and incubation is continued for 48 to 72 hours. MIT is then added in a proportion of 20 μl of a solution at 5 mg/ml in PBS. Three hours later, 100 μl of a DMF/acetic acid/HCl/SDS (sodium dodecyl sulfate) solution are added. After 3 hours at 37° C., the absorbance of the formazan is measured at 590 nm and compared with that of the untreated control.

[1] = test system: MCF-7 mammary carcinoma cells; assay: Cytotoxicity (MTT) on MCF-7 cells; format: cell-based, human; settings: Homo sapiens; for CC50: MCF7, read-out: CC50 MCF-7
Method: as §1, §2

[2] = test system: human CEM-SS T lymphoma cells; assay: Measurement of the intracellular concentrations of 2′-deoxyribonucleotides (dNTP); format: cell-based; settings: 24 hours; for activity at 50 µM: 1 at 50 μM
Method: The protocol adopted for performing this test (Roy, B.; Beuneu, C.; Roux, P.; Buc, H.; Lemaire, G.; Lepoivre, M. Simultaneous determination of pyrimidine or purine deoxyribonucleoside triphosphates using a polymerase assay. Anal. Biochem., 1999, 269, 403-409) consists in culturing human CEM-SS T lymphoma cells in the presence of the test compounds. The concentrations of dNTP and in particular of dATP are measured after 24 hours of incubation. dATP is the nucleoside triphosphate whose concentration decreases the most during tests with standard ribonucleotide reductase inhibitors such as hydroxyurea, which was used as control.
The quantification is related to the number of live cells counted after staining with trypan blue or related to the initial number of cells (approximately two million). It is measured as a percentage relative to a control manipulation.
The effects of compound 1 at 50 μM on the concentrations of 2′-deoxynucleoside 5′-triphosphates (dNTP) necessary for DNA synthesis are calculated from the dNTP concentrations measured after 24 hours and determined in pmol of dNTP/million cells. The percentages are expressed as a percentage of the control with an average of four controls, taking the counts into account, and are compared with that of an anticancer agent, hydroxyurea (HU), tested at a concentration of 63 μM.

[3] = test system: L1210 cell line (mouse lymphoma); assay: Incorporation of tritiated thymidine; format: cell-based; settings: L1210 cells
Method: These tests are performed on the L1210 cell line (mouse lymphoma) according to a published protocol (Lepoivre M., Flaman J.-M., Bobé P., Lemaire G., Henry Y. J. Biol. Chem., 1994, 269, 21891-21897). The wells are inoculated (10 000 cells per well) and, after culturing for 72 hours, [^3H]thymidine and the test compound are added to the culture medium. After incubation for 8 hours, the DNA is separated from the other cell constituents and the amount of labeled thymidine incorporated is quantified and compared with a control (without compound).
The effects of compound 1 at 50 μM and 200 μM, respectively, on the concentrations of tritiated thymidine incorporated are expressed as a percentage of the control.

[4] = test system: MCF-7* (MCF-7 mammary carcinoma cells resistant to gemcitabine); assay: Cytotoxicity (MTT) on gemcitabine-resistant MCF-7 cells; format: cell-based, human; settings: listed as printed twice per table
Method: as §1, §2
Compounds 1 and 3 to 8 corresponding to formula (II) above; compound 2 corresponding to the non-silyl compound, it corresponds to formula (II) above in which R1 represents CH2CH2CH(CH3)2 and was also tested to observe a possible effect of the silicon. These compounds were evaluated for their cytotoxicity on human CEM cells and MCF-7 mammary carcinoma cells resistant (MCM-7*) or non-resistant (MCF-7) to gemcitabine, which is an anticancer nucleoside used in chemotherapy.

human CEM T4 lymphocytes = assay: Cytotoxic effect on CEM T4 lymphocytes; format: cell-based; set-up: unit not given beside the values; settings: Tables 5 and 7, CEM cells
human Molt4/C8 cells = assay: Cytotoxic effect on Molt4/C8 cells; format: cell-based; settings: Tables 5 and 7, Molt4/C8 cells
HIV-2 [5] = assay: Anti-HIV-2 effect in CEM/TK− cells; format: cell-based; settings: Human immunodeficiency virus 2, CEM-TK(-); Third Series; CEM cells having no thymidine kinase activity
Method: (§3) The evaluation test is described in Roy, B.; Chambert, S.; Lepoivre M.; Aubertin, A.-M.; Balzarini, J.; Décout, J.-L., Deoxyribonucleoside 2′- or 3′-mixed disulfides: prodrugs to target ribonucleotide reductase and/or to inhibit HIV reverse transcription. J. Med. Chem. 2003, 46, 2565-2568.
(§4) The toxicity and the antiviral activities were measured at different concentrations, and their evolution as a function of the concentration makes it possible to evaluate: • the concentration at which 50% of the cells are dead in the absence of virus (CC 50) for each of the test compounds, from the change in absorbance at 540 nm of formazan as a function of the concentration of test compound, • the concentration of compound that leads to a 50% reduction in the activity of viral reverse transcriptase (EC 50). This concentration is determined from the curve representing the change in the percentage of “remaining reverse transcriptase” activity (defined as being the ratio of the activity of the reverse transcriptase in the presence of the test compound to that of the untreated cells) as a function of the concentration of test compound.
(§5) EC50: concentration required to afford 50% protection to the CEM cells against the cytopathogenicity of HIV;
• Effect in CEM not expressing thymidine kinase activity (CEM/TK^−, cells having no thymidine kinase activity).

[6] = test system: L1210/0 murine leukemia cells; assay: Cytotoxic effect on L1210/0 cells; format: cell-based; settings: Tables 5 and 7, L1210/0 cells
HIV-2 [7] = assay: Anti-HIV-2 effect in CEM cells; format: cell-based; settings: Human immunodeficiency virus 2, CCRF-CEM, read-out: EC50 HIV-2
Method: as §3, §4, §5

[8] = test system: FM3A/0 murine mammary carcinoma cells; assay: Cytotoxic effect on FM3A/0 cells; format: cell-based; set-up: unit not given beside the values; settings: Tables 5 and 7, FM3A/0 cells
Moloney sarcoma virus = assay: Inhibition of transformation of mouse embryo C3H/3T3 cells induced by Moloney sarcoma virus; format: cell-based; set-up: MIC (minimum inhibitory concentration): unit not given here; settings: for EC50: C3H/3T3, read-out: EC50 (effective concentration 50%); for MIC (minimum inhibitory concentration): C3H/3T3 cells, a second bound is given in brackets for some compounds
From the text: 2.2. Inhibitory Effect on the Transformation of Mouse Embryo C3H/3T3 Cells Induced by Moloney Sarcoma Virus (Model of Infection with HIV)

HIV-1 = assay: Anti-HIV-1 effect in CEM cells; format: cell-based; settings: Human immunodeficiency virus 1, CCRF-CEM
Method: as §3, §4, §5

HeLa cells = assay: Cytotoxic effect on HeLa cells; format: cell-based; set-up: unit not given beside the values; settings: Tables 5 and 7, HeLa cells
[9] = Cytotoxic concentration in CEM cells (antiviral tests); format: cell-based, human; settings: human; First and Second Series, second table; viability of CEM cells
Method: as §4
CC50: cytotoxic concentration or concentration required to reduce the viability of the CEM cells by 50%.

[10] = Homo sapiens, MCF7, MCF-7 resistant to gemcitabine
[11] = First and Second Series, second table, CEM cells
[12] = First and Second Series, second table, read-out: EC50 HIV-1
[13] = Third Series, read-out: EC50 HIV-1

SMILES	CC50 (human CEM cells; Homo sapiens, CCRF-CEM) [µM]	CC50 [1] [µM]	cytotoxic effect, CEM (human CEM T4 lymphocytes)	cytotoxic effect, Molt4/C8 (human Molt4/C8 cells)	EC50 (HIV-2 [5]) [µM]	cytotoxic effect, L1210/0 [6]	cytotoxic effect, FM3A/0 [8]	EC50 (HIV-1; [12]) [µM]	EC50 (HIV-1; [13]) [µM]	cytotoxic effect, HeLa (HeLa cells)	CC50 [9] [µM]	further results
C[Si](C)(C)CCSC1=C[C@@H](CO)O[C@H]1n1ccc(=O)[nH]c1=O [Compound 1, 2′,3′-Didehydro-2′,3′-dideoxy-2′-(2-trimethylsilyl)ethylthiouridine]	156	69										activity at 50 µM ([2]; read-out: dATP concentration, % of control): 50%; activity at 50 µM ([2]; read-out: dCTP concentration, % of control): 42%; activity at 50 µM ([2]; read-out: dGTP concentration, % of control): 31%; activity at 50 µM ([2]; read-out: dTTP concentration, % of control): 85%; decrease of the incorporation of tritiated thymidine into the DNA ([3]; 50 μM): 38%; tritiated thymidine incorporated as a percentage of the control ([3]; 50 μM): 62%; decrease of the incorporation of tritiated thymidine into the DNA ([3]; 200 μM): 86%; tritiated thymidine incorporated as a percentage of the control ([3]; 200 μM): 14%
Cc1cn([C@@H]2O[C@H](CO)C=C2SCC[Si](C)(C)C)c(=O)[nH]c1=O [Compound 3]	13	40										EC50 [4, 10]: 37 µM; EC50 ([4]; MCF-7 resistant to gemcitabine): 41 µM
Cc1cn([C@@H]2O[C@H](CO)C=C2S(=O)(=O)CC[Si](C)(C)C)c(=O)[nH]c1=O [Compound 7, 2′,3′-Didehydro-2′,3′-dideoxy-2′-(2-trimethylsilyl)ethylthiothymidine sulfone]	63	120										
O=c1ccn([C@@H]2O[C@H](CO)C=C2SSC(Cl)(Cl)Cl)c(=O)[nH]1 [Compound 13, 2′,3′-didehydro-2′,3′-dideoxyuridin-2′-yl trichloromethyl disulfide]												EC50 ([1]; MCF7, Table 4, MCF-7): 194 µM; EC50 [4, 10]: 177 µM; EC50 ([4]; MCF-7 resistant to gemcitabine): 194 µM
Cc1cn([C@H]2CC(SSCCCCCCO)[C@@H](CO)O2)c(=O)[nH]c1=O (stereo partly shown) [Compound 18]			187 ± 1	66 ± 9	> 50	44 ± 1	≧500	10.3 ± 5.7	22.5 ± 3.5	56 ± 8	107 ± 7	EC50 (human CEM cells; Homo sapiens, CCRF-CEM): 152 µM; EC50 (HIV-2 [7]; First and Second Series, first table, CEM cells): 6.5 ± 0.7 µM; EC50 (HIV-2 [7]; [11]): 11.7 ± 2.9 µM; EC50 (HIV-2 [7]; Third Series, CEM cells): 17.5 ± 11 µM; EC50 (Moloney sarcoma virus): 8.3 ± 2.3 µM; MIC (minimum inhibitory concentration) (Moloney sarcoma virus): >100; EC50 (HIV-1; read-out: EC50 HIV-1, First and Second Series, first table): 4 µM
C=CCSS[C@H]1C[C@H](n2cc(C)c(=O)[nH]c2=O)O[C@@H]1CO [Compound 20, 3′-deoxythymidin-3′-yl allyl disulfide]			128 ± 18	34 ± 6	> 50	43 ± 5	299 ± 45	12.5 ± 3.5	17.5 ± 3.5	40 ± 7	53 ± 7	EC50 (human CEM cells; Homo sapiens, CCRF-CEM): 48 µM; EC50 (human CEM cells): 46 µM; EC50 (HIV-2 [7]; [11]): 15 ± 7 µM; EC50 (HIV-2 [7]; Third Series, CEM cells): 20 ± 7 µM; EC50 (Moloney sarcoma virus): 2.2 ± 0.3 µM; MIC (minimum inhibitory concentration) (Moloney sarcoma virus): 100
Cc1cn([C@H]2C[C@H](SSCCN)[C@@H](CO)O2)c(=O)[nH]c1=O.Cl [Compound 27, 3′-deoxythymidin-3′-yl 2-aminoethyl disulfide hydrochloride]			437 ± 71	163 ± 41	150	65 ± 9	>500	27.5 ± 3.5	20	>100	> 250	EC50 (HIV-2 [7]): 27.5 ± 3.5 µM
NC(=O)NO [Hydroxyurea, hydroxyurea, reference compound]												activity at 63 µM ([2]; Hydroxyurea control, 63 μM, read-out: dTTP concentration, % of control): 51%
